According to US8604042B2, “Bi-aryl meta-pyrimidine inhibitors of kinases” (TargeGen, Inc., priority 2005, dated 2013):
“Also recorded” adds a separate entry of the source. Read-outs that look alike come from different tables or passages of the source. Blank lines part the entries; values can stand above or below the molecule they belong to.

Assays:
[1] = system: fibroblasts from sclerotic patients and healthy fibroblasts; test: Extracellular matrix protein production in fibroblasts (real-time PCR); format: cell-based, human
Procedure: An in-vitro study was conducted using compound CLXII to examine the production of extracellular matrix proteins responsible for fibrosis in fibroblasts from sclerotic patients and healthy fibroblasts.

[2] = system: bleomycin induced dermal fibrosis; test: Mouse model of bleomycin induced dermal fibrosis; format: in vivo; conditions: low dose (30 mg/kg, bid) and high dose (100 mg/kg, bid)
Procedure: In vivo studies using compound CLXII were conducted in a mouse model of bleomycin induced dermal fibrosis. FIG. 41 indicates the results of administering a low dose (30 mg/kg, bid) and a high dose (100 mg/kg, bid) of CLXII.

[3] = system: HMC-1, a mast cell leukemia line (KITD816V-positive); test: XTT cell proliferation assay, HMC-1; format: cell-based; conditions: for IC50: Homo sapiens
[4] = system: EOL-1, a chronic eosinophilic leukemia (CEL) derived line (FIP1L1-PDFRA-positive); test: XTT cell proliferation assay, EOL-1; format: cell-based; conditions: for IC50: Homo sapiens, EOL1, XTT assay, read-out: Cellular IC50 EOL-1
[5] = molecular target: T1, Ba/F3 T674I (FIP1L1-PDFRA-T674I) (Homo sapiens, UniProt P16234, T674I, cells depend on it); test: XTT cell proliferation assay, Ba/F3 T674I; format: cell-based; conditions: for GI50: XTT assay, read-out: Cellular IC50 Ba/F3 T674I
T1 construct: fused on or other part: Q6UN15 (Pre-mRNA 3'-end-processing factor FIP1)

[6] = system: HEL cells; test: XTT cell proliferation assay, HEL cells; format: cell-based; conditions: Homo sapiens
[7] = system: CTLL-2 cells; test: IL-2-induced JAK3-dependent proliferation of CTLL-2 cells; format: cell-based; conditions: Mus musculus
Procedure: (§1) HEL, CTLL-2 & normal human dermal fibroblasts (NHDF) were from the American Tissue Culture Collection Rockville, Md.). BaF/3 cells were obtained from DKFZ Cancer Research Center (Heidelberg, Germany).
(§2) BaF/3, HEL & NHDF cells were grown in RPMI 1640 medium (Gibco BRL, Gaithersburg, Md.) supplemented with penicillin, streptomycin, L-glutamine, and 10% fetal bovine serum (FBS). CTLL-2 cells were grown in the same media further supplemented with 20 U/mL recombinant IL-2 (Hoffmann-LaRoche, Nutley, N.J.). Plasmid containing the human JAK2 coding sequence was purchased from Invitrogen (Madison, Wis.). JAK2^V617F cDNA was generated by using site-directed mutagenesis to introduce the V617F mutation into the human JAK2 coding sequence followed by verification using two-directional sequencing. […]
(§3) Cell proliferation assay was performed using the XTT cell proliferation kit according to the manufacturer's instructions (Roche, Alameda, Calif.). […] The colored formazan product that is formed was measured spectrophotometrically using the Vmax spectrophotometer (Molecular Devices, Sunnyvale, Calif.) at 450 nm with correction at 650 nm. IC50 values were determined using the GraphPad Prism 4.0 software (San Diego, Calif.), wherefore OD values were plotted on y-axis (linear scale) and concentration (mM) on the x-axis (log scale).

[8] = system: normal human dermal fibroblasts (NHDF); test: XTT cell proliferation assay, normal human dermal fibroblast control; format: cell-based; conditions: Control data: Normal human dermal fibroblast control
Procedure: as §1, §2, §3

[9] = system: BaF/3 cells expressing JAK2^V617F and GFP; test: JAK2V617F-driven circulating tumor model in SCID mice; format: in vivo, mouse; conditions: oral 10, 30 or 100 mg/kg; day 11; FACS, GFP positive cells
[10] = system: parental Ba/F3 cells; test: Growth of parental Ba/F3 cells; format: cell-based; conditions: Mus musculus, BaF3; data not shown
Source text: (§4) […]. data not shown), reflecting their dependence on signaling by wild type JAK2. […].

[11] = system: BCR-ABL+K562 cells; test: Growth of K562 cells; format: cell-based; conditions: Homo sapiens, control experiments
Source text: as §4

[12] = system: phospho-JAK2V617F, phospho-STAT5, phospho-STAT3; test: Phosphorylation of JAK2V617F, STAT5 and STAT3 in HEL cells; format: cell-based; conditions: Homo sapiens, read-out: IC50, levels of phospho-JAK2V617F, phospho-STAT5, phospho-STAT3
[13] = system: STAT5 phosphorylation; test: STAT5 phosphorylation in Ba/F3-V617F cells; format: cell-based; conditions: data not shown
Procedure: Protein concentration was determined using the BCA method (Pierce, Rockford, Ill.) and 100 μg of total cellular protein of each sample in 1× Laemmli buffer were subjected to Western blot analysis. The protein blot was probed with an anti-phospho-STAT5 (Tyr694/699) (Upstate Biotechnology, Charlottesville, Va.), subsequently stripped and re-probed with an anti-STAT5 antibody (Cell Signaling Technology, Danvers, Mass.). The phospho-STAT5 or STAT5 protein was visualized by the enhanced chemoluminescence method (Pierce). In vivo signaling studies were done in a similar fashion. […] Spleens were harvested 7 h after dosing and quickly homogenized in a FastPrep machine (Qbiogen, Irvine, Calif.). 100 μg of each spleen homogenate were subjected to Western blot analysis. The protein […] anti-phospho-STAT5 (Tyr694/699) (Upstate Biotechnology, Charlottesville, Va.), subsequently stripped and re-probed with an anti-STAT5 antibody (Cell Signaling Technology, Danvers, Mass.). The phospho-STAT5 or STAT5 protein was visualized by the enhanced chemoluminescence method (Pierce). In vivo signaling studies were done in a similar fashion. […] Spleens were harvested 7 h after dosing and quickly homogenized in a FastPrep machine (Qbiogen, Irvine, Calif.). 100 μg of each spleen homogenate were subjected to Western blot analysis. […]

[14] = Ocular exposure after eye drop administration; format: in vivo; conditions: mouse, bilateral topical instillation of 0.1% formulation QDX1, 2 hr
Procedure: Exposure data of compounds at 0.1% via eye drop administration:
On topical dosing of compounds formulated as 0.1% doses in 0.2% tyloxapol/1% HPMC/4% Mannitol, exposure levels in found in back of the eye tissues of the mouse are shown at two different time points, namely at 2 h and at 7 h.

[15] = Ocular exposure after eye drop administration; format: in vivo; conditions: mouse
[16] = HMC1, XTT assay, read-out: Cellular IC50 HMC-1

T1 sequence (P16234 whole entry T674I, the tested form may be a part): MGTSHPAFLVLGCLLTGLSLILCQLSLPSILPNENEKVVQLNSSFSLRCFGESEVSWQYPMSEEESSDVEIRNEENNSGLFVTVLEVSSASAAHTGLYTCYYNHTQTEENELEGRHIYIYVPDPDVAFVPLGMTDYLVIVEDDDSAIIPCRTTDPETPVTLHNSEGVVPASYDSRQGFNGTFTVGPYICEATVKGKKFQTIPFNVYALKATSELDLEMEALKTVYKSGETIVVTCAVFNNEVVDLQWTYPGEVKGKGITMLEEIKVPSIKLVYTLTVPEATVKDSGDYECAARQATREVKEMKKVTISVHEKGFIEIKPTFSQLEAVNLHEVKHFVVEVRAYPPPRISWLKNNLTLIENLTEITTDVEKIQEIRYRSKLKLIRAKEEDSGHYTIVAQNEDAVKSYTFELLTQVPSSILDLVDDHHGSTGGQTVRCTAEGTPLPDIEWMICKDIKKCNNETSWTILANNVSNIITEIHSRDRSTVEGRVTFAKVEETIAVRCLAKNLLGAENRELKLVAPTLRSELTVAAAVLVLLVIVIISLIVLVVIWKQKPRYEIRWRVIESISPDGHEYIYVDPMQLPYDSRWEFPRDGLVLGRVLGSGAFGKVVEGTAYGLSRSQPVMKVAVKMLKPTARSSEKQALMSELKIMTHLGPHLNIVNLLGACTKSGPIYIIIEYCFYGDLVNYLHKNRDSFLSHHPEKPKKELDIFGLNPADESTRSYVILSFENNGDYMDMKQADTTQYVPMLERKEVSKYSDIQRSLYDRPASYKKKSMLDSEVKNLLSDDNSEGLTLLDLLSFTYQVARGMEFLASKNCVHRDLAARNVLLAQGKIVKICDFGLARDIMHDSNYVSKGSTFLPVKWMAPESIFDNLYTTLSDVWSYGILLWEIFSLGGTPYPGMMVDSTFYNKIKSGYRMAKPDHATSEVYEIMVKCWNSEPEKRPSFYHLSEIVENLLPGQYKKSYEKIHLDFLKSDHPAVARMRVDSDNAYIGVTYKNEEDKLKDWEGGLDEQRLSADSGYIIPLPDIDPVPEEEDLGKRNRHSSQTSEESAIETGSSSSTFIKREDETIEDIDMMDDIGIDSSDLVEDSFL

Compound: Cc1ccc(Nc2nc(Nc3ccc(N4CCN(C)CC4)cc3)ncc2C)cc1C [CLXII]
basal synthesis of collagen 1a1 ([1]; real-time PCR, 5% FCS, sclerotic vs normal fibroblasts): inhibition of basal synthesis of collagen 1a1 in sclerotic fibroblasts, but not normal, fibroblasts; also recorded: inhibition of basal synthesis of collagen 1a1 in sclerotic, but not normal, fibroblasts
basal synthesis of fibronectin 1 ([1]; sclerotic or normal fibroblasts): dose not inhibit basal synthesis of fibronection-1 in either sclerotic or normal fibroblasts
basal synthesis of collagen 1a2 ([1]; sclerotic vs normal fibroblasts): some inhibition of basal synthesis of collagen 1a2 in sclerotic fibroblasts, but not normal, fibroblasts
bleomycin induced dermal fibrosis [2]: prevention of bleomycin induced dermal fibrosis

IC50 [3, 16]: 1300 nM
IC50 [4]: < 1 pM
GI50 [5]: 30.9 µM
Compound: Cc1nc(Nc2ncc(C(=O)Nc3c(C)cccc3Cl)s2)cc(N2CCN(CCO)CC2)n1 [Dasatinib, dasatinib]

Compound: Cc1cnc(Nc2ccc(OCCN3CCCC3)cc2)nc1Nc1cccc(S(=O)(=O)NC(C)(C)C)c1 [LVII]
IC50 ([6]; XTT assay, Table 19, read-out: Cellular IC50 HEL): 300 nM
IC50 ([3]; HMC1, read-out: Cellular IC50 HMC-1 (nM)): 355 nM
IC50 [4]: < 1 pM

IC50 [3, 16]: 4000 nM
IC50 [4]: 2 pM
concentrations inhibiting growth of Ba/F3 cells harboring FIP1L1-PDFGRA-T674I [5]: nanomolar concentrations
GI50 [5]: 0.016 µM
Compound: CNC(=O)c1cc(Oc2ccc(NC(=O)Nc3ccc(Cl)c(C(F)(F)F)c3)cc2)ccn1 [Sorafenib]
sensitivity of HMC-1 growth [3]: only a limited effect
concentrations inhibiting EOL-1 growth [4]: picomolar concentrations

Compound: Cc1cnc(Nc2ccc(N3CCN(C)CC3)cc2)nc1Nc1cccc(S(=O)(=O)NC(C)(C)C)c1 [XLV]
EC50 ([6]; XTT, 72 hour incubation): 270 nM
IC50 ([6]; homozygous for the JAK2V617F allele, FIG. 32C, read-out: IC50, HEL cells): 300 nM
EC50 ([7]; Control data: IL-2-induced JAK3-dependent proliferation): 3.4 µM
IC50 ([7]; IL-2 dependent cytotoxic T-cells, FIG. 32B, read-out: IC50, growth of CTLL-2 cells): 3.4 µM
EC50 [8]: 6.49 µM
number of circulating JAK2^V617F tumor cells [9]: reduces the number of circulating JAK2^V617F tumor cells in a dose-dependent manner
IC50 [10]: 470 nM
IC50 [11]: 1000 nM
IC50 [12]: 300 to 600 nM
IC50 [13]: 300 nM

concentration at 2 h ([14]; cornea, read-out: Concentration (nM) Cornea): 8840 nM
concentration at 2 h ([14]; retina, read-out: Concentration (nM) retina): 495 nM
concentration at 2 h ([14]; sclera/choroid, read-out: Concentration (nM) Sclera/choroid): 6040 nM
concentration at 6 h ([15]; cornea, bilateral topical instillation of 0.1% formulation QDX1, read-out: Concentration (nM) Cornea): 3780 nM
concentration at 6 h ([15]; retina, bilateral topical instillation of 0.1% formulation QDX1, read-out: Concentration (nM) retina): 351 nM
concentration at 6 h ([15]; sclera/choroid, bilateral topical instillation of 0.1% formulation QDX1, read-out: Concentration (nM) Sclera/choroid): 2970 nM
Compound: COc1cc(Nc2nc(Nc3ccc(OCCN4CCCC4)cc3)ncc2C)ccc1Cl [XVII]
